These compounds were tested on JAK1-dependent STAT6 phosphorylation downstream of IL-13 stimulation in TF-1 human erythroleukemia cells (assay: cells). Conditions: TF-1, read-out: IL-13-pSTAT6 IC50.

IC50 [nM] | SMILES
233 | CCOC(=O)N1CC=C(c2cccn3nc(Nc4ccc(C(=O)NCCN5CCNCC5)cc4)nc23)CC1 [Example 2-112, ethyl 4-[2-[4-(2-piperazin-1-ylethylcarbamoyl)anilino]-[1,2,4]triazolo[1,5-a]pyridin-8-yl]-3,6-dihydro-2H-pyridine-1-carboxylate]
96.8 | CCOC(=O)N1CC=C(c2cccn3nc(Nc4ccc(C(=O)NC5CCCNC5)cc4)nc23)CC1 (centres unmarked) [Example 2-113, ethyl 4-[2-[4-(3-piperidylcarbamoyl)anilino]-[1,2,4]triazolo[1,5-a]pyridin-8-yl]-3,6-dihydro-2H-pyridine-1-carboxylate]
69.2 | CCOC(=O)N1CC=C(c2cccn3nc(Nc4ccc(C(=O)NCC5CCCCN5)cc4)nc23)CC1 (centres unmarked) [Example 2-114, ethyl 4-[2-[4-(2-piperidylmethylcarbamoyl)anilino]-[1,2,4]triazolo[1,5-a]pyridin-8-yl]-3,6-dihydro-2H-pyridine-1-carboxylate]
19 | CCOC(=O)N1CC=C(c2cccn3nc(Nc4ccc(C(=O)N5CC(C(=O)N(C)C)C5)cc4)nc23)CC1 [Example 2-115, ethyl 4-[2-[4-[3-(dimethylcarbamoyl)azetidine-1-carbonyl]anilino]-[1,2,4]triazolo[1,5-a]pyridin-8-yl]-3,6-dihydro-2H-pyridine-1-carboxylate]
23.9 | CCOC(=O)N1CC=C(c2cccn3nc(Nc4ccc(C(=O)N(C)CCc5ccncc5)cc4)nc23)CC1 [Example 2-119, ethyl 4-[2-[4-[methyl-[2-(4-pyridyl)ethyl]carbamoyl]anilino]-[1,2,4]triazolo[1,5-a]pyridin-8-yl]-3,6-dihydro-2H-pyridine-1-carboxylate]
48.8 | CCOC(=O)N1CC=C(c2cccn3nc(Nc4ccc(C(=O)N5CC6CN(C)CC(C5)O6)cc4)nc23)CC1 [Example 2-123, ethyl 4-[2-[4-(7-methyl-9-oxa-3,7-diazabicyclo[3.3.1]nonane-3-carbonyl)anilino]-[1,2,4]triazolo[1,5-a]pyridin-8-yl]-3,6-dihydro-2H-pyridine-1-carboxylate]
38.5 | CCOC(=O)N1CC=C(c2cccn3nc(Nc4ccc(C(=O)NCc5cc(C)ccn5)cc4)nc23)CC1 [Example 2-124, ethyl 4-[2-[4-[(4-methyl-2-pyridyl)methylcarbamoyl]anilino]-[1,2,4]triazolo[1,5-a]pyridin-8-yl]-3,6-dihydro-2H-pyridine-1-carboxylate]
226 | CCOC(=O)N1CC=C(c2cccn3nc(Nc4ccc(C(=O)N5CCC(CN)C5)cc4)nc23)CC1 (centres unmarked) [Example 2-130, ethyl 4-[2-[4-[3-(aminomethyl)pyrrolidine-1-carbonyl]anilino]-[1,2,4]triazolo[1,5-a]pyridin-8-yl]-3,6-dihydro-2H-pyridine-1-carboxylate]
163 | O=C(CCC(F)(F)F)N1CC=C(c2cccn3nc(Nc4ccc(C(=O)N5CCC6(CCNC6)CC5)cc4)nc23)CC1 [Example 2-136, 1-[4-[2-[4-(2,8-diazaspiro[4.5]decane-8-carbonyl)anilino]-[1,2,4]triazolo[1,5-a]pyridin-8-yl]-3,6-dihydro-2H-pyridin-1-yl]-4,4,4-trifluoro-butan-1-one]
78.8 | O=C(NC1CCCNC1)c1ccc(Nc2nc3c(C4=CCN(C(=O)CCC(F)(F)F)CC4)cccn3n2)cc1 (centres unmarked) [Example 2-137, N-(3-piperidyl)-4-[[8-[1-(4,4,4-trifluorobutanoyl)-3,6-dihydro-2H-pyridin-4-yl]-[1,2,4]triazolo[1,5-a]pyridin-2-yl]amino]benzamide]
61.9 | O=C(N[C@H]1CCCNC1)c1ccc(Nc2nc3c(C4=CCN(C(=O)CCC(F)(F)F)CC4)cccn3n2)cc1 [Example 2-138, N-[(3S)-3-piperidyl]-4-[[8-[1-(4,4,4-trifluorobutanoyl)-3,6-dihydro-2H-pyridin-4-yl]-[1,2,4]triazolo[1,5-a]pyridin-2-yl]amino]benzamide]
358 | O=C(CCC(F)(F)F)N1CC=C(c2cccn3nc(Nc4ccc(C(=O)N5CCO[C@@H]6CNC[C@@H]65)cc4)nc23)CC1 [Example 2-139, 1-[4-[2-[4-[(4aS,7aR)-3,4a,5,6,7,7a-hexahydro-2H-pyrrolo[3,4-b][1,4]oxazine-4-carbonyl]anilino]-[1,2,4]triazolo[1,5-a]pyridin-8-yl]-3,6-dihydro-2H-pyridin-1-yl]-4,4,4-trifluoro-butane-1-one]
6.6 | N#CCCN1CCN(C(=O)c2ccc(Nc3nc4c(C5=CCN(C(=O)CCC(F)(F)F)CC5)cccn4n3)cc2)CC1 [Example 2-142, 3-[4-[4-[[8-[1-(4,4,4-trifluorobutanoyl)-3,6-dihydro-2H-pyridin-4-yl]-[1,2,4]triazolo[1,5-a]pyridin-2-yl]amino]benzoyl]piperazin-1-yl]propanenitrile]
7.9 | Cc1ccc(C2CCCN2C(=O)c2ccc(Nc3nc4c(C5=CCN(C(=O)CCC(F)(F)F)CC5)cccn4n3)cc2)nc1 (centres unmarked) [Example 2-143, 4,4,4-trifluoro-1-[4-[2-[4-[2-(5-methyl-2-pyridyl)pyrrolidine-1-carbonyl]anilino]-[1,2,4]triazolo[1,5-a]pyridin-8-yl]-3,6-dihydro-2H-pyridin-1-yl]butan-1-one]
187 | CN1CCN(C(=O)c2ccc(Nc3nc4c(C5=CCN(C(=O)CCC(F)(F)F)CC5)cccn4n3)cc2)CC(CO)C1 (centres unmarked) [Example 2-144, 4,4,4-trifIuoro-1-[4-[2-[4-[6-(hydroxymethyl)-4-methyl-1,4-diazepane-1-carbonyl]anilino]-[1,2,4]triazolo[1,5-a]pyridin-8-yl]-3,6-dihydro-2H-pyridin-1-yl]butan-1-one]
6.4 | O=C(CCC(F)(F)F)N1CC=C(c2cccn3nc(Nc4ccc(C(=O)N5CCCC5c5cccnc5)cc4)nc23)CC1 (centres unmarked) [Example 2-145, 4,4,4-trifluoro-1-[4-[2-[4-[2-(3-pyridyl)pyrrolidine-1-carbonyl]anilino]-[1,2,4]triazolo[1,5-a]pyridin-8-yl]-3,6-dihydro-2H-pyridin-1-yl]butan-1-one]
6.5 | O=C(CCC(F)(F)F)N1CC=C(c2cccn3nc(Nc4ccc(C(=O)N5Cc6cccnc6C5)cc4)nc23)CC1 [Example 2-146, 1-[4-[2-[4-(5,7-dihydropyrrolo[3,4-b]pyridine-6-carbonyl)anilino]-[1,2,4]triazolo[1,5-a]pyridin-8-yl]-3,6-dihydro-2H-pyridin-1-yl]-4,4,4-trifluoro-butan-1-one]
6.6 | CC1CCN(CCNC(=O)c2ccc(Nc3nc4c(C5=CCN(C(=O)CCC(F)(F)F)CC5)cccn4n3)cc2)CC1 [Example 2-147, N-[2-(4-methyl-1-piperidyl)ethyl]-4-[[8-[1-(4,4,4-trifluorobutanoyl)-3,6-dihydro-2H-pyridin-4-yl]-[1,2,4]triazolo[1,5-a]pyridin-2-yl]amino]benzamide]
10.7 | CN1CCC(C2CCCCN2C(=O)c2ccc(Nc3nc4c(C5=CCN(C(=O)CCC(F)(F)F)CC5)cccn4n3)cc2)CC1 (centres unmarked) [Example 2-149, 4,4,4-trifluoro-1-[4-[2-[4-[2-(1-methyl-4-piperidyl)piperidine-1-carbonyl]anilino]-[1,2,4]triazolo[1,5-a]pyridin-8-yl]-3,6-dihydro-2H-pyridin-1-yl]butane-1-one]
8.3 | CN1CCC(N(C(=O)c2ccc(Nc3nc4c(C5=CCN(C(=O)CCC(F)(F)F)CC5)cccn4n3)cc2)C2CC2)CC1 [Example 2-150, N-cyclopropyl-N-(1-methyl-4-piperidyl)-4-[[8-[1-(4,4,4-trifluorobutanoyl)-3,6-dihydro-2H-pyridin-4-yl]-[1,2,4]triazolo[1,5-a]pyridin-2-yl]amino]benzamide]
5.7 | O=C(CCC(F)(F)F)N1CC=C(c2cccn3nc(Nc4ccc(C(=O)N5CCN6CCCCC6C5)cc4)nc23)CC1 (centres unmarked) [Example 2-151, 1-[4-[2-[4-(1,3,4,6,7,8,9,9a-octahydropyrido[1,2-a]pyrazine-2-carbonyl)anilino]-[1,2,4]triazolo[1,5-a]pyridin-8-yl]-3,6-dihydro-2H-pyridin-1-yl]-4,4,4-trifluoro-butan-1-one]
9.3 | CN(CCc1ccccn1)C(=O)c1ccc(Nc2nc3c(C4=CCN(C(=O)CCC(F)(F)F)CC4)cccn3n2)cc1 [Example 2-152, N-methyl-N-[2-(2-pyridyl)ethyl]-4-[[8-[1-(4,4,4-trifluorobutanoyl)-3,6-dihydro-2H-pyridin-4-yl]-[1,2,4]triazolo[1,5-a]pyridin-2-yl]amino]benzamide]
28.6 | O=C(CCC(F)(F)F)N1CC=C(c2cccn3nc(Nc4ccc(C(=O)N5CCN(CCO)CC5)cc4)nc23)CC1 [Example 2-153, 4,4,4-trifluoro-1-[4-[2-[4-[4-(2-hydroxyethyl)piperazine-1-carbonyl]anilino]-[1,2,4]triazolo[1,5-a]pyridin-8-yl]-3,6-dihydro-2H-pyridin-1-yl]butan-1-one]
132 | O=C(CCC(F)(F)F)N1CC=C(c2cccn3nc(Nc4ccc(C(=O)N5CCC(c6cc7cccnc7[nH]6)CC5)cc4)nc23)CC1 [Example 2-155, 4,4,4-trifluoro-1-[4-[2-[4-[4-(1H-pyrrolo[2,3-b]pyridin-2-yl)piperidine-1-carbonyl]anilino]-[1,2,4]triazolo[1,5-a]pyridin-8-yl]-3,6-dihydro-2H-pyridin-1-yl]butan-1-one]
8.3 | O=C(CCC(F)(F)F)N1CC=C(c2cccn3nc(Nc4ccc(C(=O)N5CCC(c6ccccn6)CC5)cc4)nc23)CC1 [Example 2-156, 4,4,4-trifluoro-1-[4-[2-[4-[4-(2-pyridyl)piperidine-1-carbonyl]anilino]-[1,2,4]triazolo[1,5-a]pyridin-8-yl]-3,6-dihydro-2H-pyridin-1-yl]butan-1-one]
4.7 | CC1CN(C2CCN(C(=O)c3ccc(Nc4nc5c(C6=CCN(C(=O)CCC(F)(F)F)CC6)cccn5n4)cc3)CC2)CC(C)O1 (centres unmarked) [Example 2-157, 1-[4-[2-[4-[4-(2,6-dimethylmorpholin-4-yl)piperidine-1-carbonyl]anilino]-[1,2,4]triazolo[1,5-a]pyridin-8-yl]-3,6-dihydro-2H-pyridin-1-yl]-4,4,4-trifluoro-butan-1-one]
